According to US12606795B2 (Thankcome Biological Science and Technology (SuZhou) Co., …, priority 2023, dated 2026):
Converted amounts (≈) assume the structure as drawn. One block for each molecule: values may come before it.

Assays:
[1] = system: AOM/DSS-induced colorectal carcinoma mice; experiment: AOM/DSS-induced colorectal carcinoma mice; format: in vivo, C57BL/6 mice
Description: 6-week-old SPF male C57BL/6 mice, purchased from the Chongqing Lepitt Biotechnology Co., Ltd. The mice were raised in a standardized laboratory with room temperature of 25° C.±2° C., relative humidity of 50%±5%, and 12 h of light/12 h of darkness. […] In experiments, mice were given free feeding and water. On the first day of experimental molding, the mice in the model group, the aspirin group, and the AKKP group were injected intraperitoneally with AOM at a dosage of 10 mg/kg, and were fed with 2.5% DSS aqueous solution at weeks 2, 5, and 8. The mice in the normal group and model group were intragastrically administrated with sterile saline; the mice in the aspirin group were intragastrically administrated with an aspirin solution at 67 mg/kg, and the mice in the AKKPL group and the AKKPH group were intragastrically administrated at dosages of 1×10^8 CFU/kg and 1×10^9 CFU/kg, respectively, for 10 consecutive weeks. In the experiments, diet, activity, vigor and hair conditions, and fecal properties of the mice in each group were observed. Each mouse was weighed per week and the body weights were recorded. After the experiments, blood was collected from eyeballs and the mice were sacrificed by removing their vertebrae. The mice were dissected to take out large intestine tissue, spleen tissue, liver tissue, and the kidney tissue for later testing.
After the mice were dissected, the large intestine tissue, the spleen tissue, the liver tissue, and the kidney tissue were taken out and weighed. An organ Index was calculated using a formula, while the colorectum length of the mouse was measured and the colorectal tumorigenesis number of the mouse was recorded. Organ index=organ weight (mg)/mouse body weight (g).
After being fixed in a tissue fixative for 24 h, the rectum of the mouse was transferred into 95% ethanol for dehydration, and then the dehydrated rectum was placed in xylene to replace alcohol in the tissue to make the rectum tissue transparent. Then, the treated rectum was embedded with paraffin. The embedded rectum was sectioned by a microtome, and then a tissue section was stained with H&E and fixed, obtaining a pathologic tissue section, with a thickness of 2 to 3 μm, of the rectum of the mouse, and the pathologic tissue section was observed under the upright microscope.
Whole blood was collected from the eyeballs, and centrifuged at 4000 r/min and 4° C. for 10 min to separate supernatant serum. According to the instruction of the ELISA kit, the levels of IL-1β, IL-6, IFN-γ, iNOS and NF-κB in the serum of the mouse were determined.
About 50 mg colon tissue was taken and cleaned with saline, and the cleaned colon tissue was placed in a homogenization tube containing 6 zirconia beads, and 500 μL TRIzol™ reagent was added to extract RNA in the tissue. The purity and concentration of RNA were determined using the micro-spectrophotometer. […] Then, after cDNA was generated by reverse transcription, a reaction system containing 1 μL cDNA was prepared. Other reagents include 10 μL qPCR SYBR Green Master Mix, […] sterile distilled water, 1 μL forward primer and 1 μL reverse primer. qRT-PCR amplification reaction conditions: 95° C., 10 s, 60° C., 30 s, 40 cycles; 95° C., 15 s, 60° C., 60 s, 95° C., 15 s. Taking Eef2 as an internal reference gene, the mRNA relative expression of each target gene was calculated according to formula 2^−ΔΔCt.

AKK PROBIO = experiment: Drug sensitivity, agar dilution method (CLSI); format: cell-based, Akkermansia muciniphila; conditions: for MIC: Akkermansia muciniphila, read-out: Test strain AKK PROBIO MIC, agar dilution method; for Test strain AKK PROBIO Judgment result: judged by CLSI S/I/R criterion of Table 6
Description: Referring to the Clinical and Laboratory Standards Institute (CLSI) method [CLSI. Performance Standards for Antimicrobial Susceptibility Testing; 26th ed. CLSI supplement M100S.
The sensitivity of AKK PROBIO to ampicillin, ceftriaxone, cefotaxime, meropenem, tetracycline, moxifloxacin, and chloramphenicol was determined using an agar dilution method recommended by CLSI. The quality-control strain B. fragilis ATCC 25285 was determined using a micro broth dilution method recommended by CLSI.

[2] = system: Bacteroides fragilis ATCC 25285; experiment: Drug sensitivity of quality-control strain, micro broth dilution method (CLSI); format: cell-based; conditions: ATCC25285
Description: Bacteroides fragilis ATCC 25285 was selected as a quality-control strain. The sensitivity of […] to ampicillin, ceftriaxone, cefotaxime, meropenem, tetracycline, moxifloxacin, and chloramphenicol was determined using an agar dilution method recommended by CLSI. The quality-control strain B. fragilis ATCC 25285 was determined using a micro broth dilution method recommended by CLSI.

S. typhimurium TA98 = conditions: TA98 −S9
Description: (§1) Bacterial strains used were Salmonella typhimurium TA97a (National Center for Type Culture Collection NTCC, 506391), S. typhimurium TA98 (NTCC, 506392), S. typhimurium TA100 (NTCC, 506395), S. typhimurium TA1535 (NTCC, 506396), and Escherichia coli WP2 uvrA (CHI Scientific, Co., Ltd., product number: 6-1705). To prepare a drug delivery formulation, distilled water was used as a carrier to prepare a suspension (100 mg/mL) for a test item. […] Therefore, bacteria in samples for the test item were removed by a mechanical means. In the process of mixing the formulation, any soluble components for the test item was dissolved in the carrier, and then, residual bacteria were removed by centrifugation (4° C.; 8000 rpm; 10 min). After centrifugation, liquid supernatant was removed and sterile filtration was performed with a 0.22 μm filter.
(§2) In the confirmatory mutation research, detection was performed at 15.81, 50, 158.1, 500, 1581, and 5000 μg/plate. The maximum concentration was recommended by current regulations and guidelines. […] The survival rate of test bacterial cells was checked through plate experiments in each test. If there is a dosage-related increase in the number of revertants, it is considered that the test item has mutagenicity, and/or a reproducible biology-related positive reaction targeting at least one dosage group occurs in at least one strain with or without metabolic activation.

[3] = system: Salmonella typhimurium TA97a; conditions: TA97a −S9
Description: as §1, §2

[4] = system: gouty arthritis mouse model; experiment: Gouty arthritis mouse model (sodium urate); format: in vivo, BALB/c mice; conditions: glucosamine sulfate 195 mg/kg. bw intragastric
Description: Mice were randomly divided into 5 groups: a normal group, a model group, a glucosamine sulfate (positive control) group, an Akk low-concentration experimental (Akk-L) group, and an Akk high-concentration experimental (Akk-H) group, with 10 mice in each group. The mice in the normal group and the mice in the model group were intragastrically administered with distilled water at a dosage of 0.1 mL/10 g. bw per day. The mice in the glucosamine sulfate group were intragastrically administered with glucosamine sulfate at a dosage of 195 mg/kg. bw. The mice in the Akk-L group and the mice in the Akk-H group were intragastrically administered with Akk experimental bacteria at a dosage of 10^8 CFU/kg. bw and 10^9 CFU/kg. bw, respectively, for 7 consecutive days. Then, all experimental mice were anesthetized with isoflurane, and then 50 μL of PBS solution was injected into the tibiotarsal joint (ankle joint) of the right paw of the mouse in the normal group. 50 mg of sodium urate was added to 1 mL of PBS buffer to prepare a suspension. 50 μL of suspension was injected into the tibiotarsal joints (ankle joint) of the right paws of the rest of the mice except the mice in the […] to induce gouty arthritis. After the mice woke up, they were intragastrically administrated with a corresponding sample for 7 d still at the dosage of the sample intragastrically administrated in the previous 7 days.
0.1 g of mouse ankle joint tissue was weighed and added into […] containing 0.9 mL of saline and mixing was performed. Subsequently, mixed tissue samples were centrifuged at a speed of 4000 rpm for 10 min to obtain liquid supernatant. Next, related indicators in the liquid supernatant of a tissue homogenate was determined using assay kits for MPO, SOD, GSH, and MDA.
A taken-out whole blood sample of the mouse was centrifuged at 4° C. at 4000 rpm for 10 min to obtain supernatant serum. Serum-related inflammatory indicators were determined using the ELISA kit for IL-6, IL-10, IL-1β, and TNF-α.

[5] = qRT-PCR, aspirin 67 mg/kg or AKKPH 1×10^9 CFU/kg, vs model group, P<0.05
[6] = qRT-PCR, vs model group, P<0.05

kidney index / renal tissue ([1]; between the five groups, P>0.05): no significant difference
SMILES: CC(=O)Oc1ccccc1C(=O)O [aspirin, reference compound]
body weight loss ([1]; AOM/DSS mice, intragastric 10 weeks, aspirin 67 mg/kg, AKKP 1×10^8 and 1×10^9 CFU/kg): alleviate the body weight loss in the mice to a certain extent
content of IL-6 in serum ([1]; ELISA, vs model group): reduced
content of IFN-γ in serum ([1]; ELISA, vs model group, P<0.05): reduced
content of IL-1β in serum ([1]; ELISA, vs model group, P<0.05): lower than that in the model group
content of NF-κB in serum ([1]; ELISA, vs model group, P<0.05): reduced
content of iNOS in serum ([1]; ELISA, vs model group, P<0.05): reduced
colorectum weight/length (ratio) ([1]; aspirin 67 mg/kg intragastric 10 weeks, model group 4.34±0.35, normal 2.81±0.34): 3.17±0.50
pathological morphology of rectum tissue (H&E) ([1]; aspirin, AKKPL and AKKPH groups): no obvious erosion found in the rectal mucosa
mRNA relative expression of IκBβ in colon tissue [1, 5]: significantly reduced
mRNA relative expression of p50 in colon tissue [1, 5]: significantly reduced
mRNA relative expression of Bid in colon tissue [1, 6]: significantly increased
mRNA relative expression of Bim in colon tissue [1, 6]: significantly increased
mRNA relative expression of caspase-9 in colon tissue [1, 6]: significantly increased
mRNA relative expression of p52 in colon tissue [1, 6]: significantly reduced
mRNA relative expression of p65 in colon tissue [1, 6]: significantly reduced
colorectal tumorigenesis number ([1]; vs model group, P<0.05): significantly smaller
liver weight (liver index) ([1]; vs model group, P<0.05): reduced
spleen weight (spleen index) ([1]; vs model group, P<0.05): reduced
colorectum length ([1]; vs model group, P<0.05, aspirin 67 mg/kg, AKKP 1×10^8 and 1×10^9 CFU/kg, 10 weeks): relatively long

MIC (AKK PROBIO): 4 µg/mL (≈ 12.4 µM)
MIC [2]: 8 µg/mL (≈ 24.8 µM)
SMILES: O=C(N[C@H](CO)[C@H](O)c1ccc([N+](=O)[O-])cc1)C(Cl)Cl [Chloramphenicol, chloramphenicol]
Test strain AKK PROBIO Judgment result (AKK PROBIO): Sensitive
Test strain AKK PROBIO Judgment result (AKK PROBIO; listed as chloramphenicol): sensitive

MIC (AKK PROBIO): 0.125 µg/mL (≈ 0.326 µM)
MIC [2]: 0.25 µg/mL (≈ 0.652 µM)
SMILES: C[C@@H](O)[C@H]1C(=O)N2C(C(=O)O)=C(S[C@@H]3CN[C@H](C(=O)N(C)C)C3)[C@H](C)[C@H]12 [Meropenem, meropenem]
Test strain AKK PROBIO Judgment result (AKK PROBIO): Sensitive
Test strain AKK PROBIO Judgment result (AKK PROBIO; listed as meropenem): sensitive

MIC (AKK PROBIO): 8 µg/mL (≈ 14.4 µM)
MIC [2]: 128 µg/mL (≈ 231 µM)
SMILES: CO/N=C(\C(=O)N[C@@H]1C(=O)N2C(C(=O)O)=C(CSc3nc(=O)c(=O)[nH]n3C)CS[C@H]12)c1csc(N)n1 [Ceftriaxone, ceftriaxone]
Test strain AKK PROBIO Judgment result (AKK PROBIO): Sensitive
Test strain AKK PROBIO Judgment result (AKK PROBIO; listed as ceftriaxone): sensitive

The remaining lines, values behind:

SMILES: CN(C)[C@@H]1C(O)=C(C(N)=O)C(=O)[C@@]2(O)C(O)=C3C(=O)c4c(O)cccc4[C@@](C)(O)[C@H]3C[C@@H]12 [Tetracy cline, tetracycline]
MIC (AKK PROBIO): 2 µg/mL (≈ 4.5 µM)
MIC [2]: 0.5 µg/mL (≈ 1.13 µM)

SMILES: CN(C)c1ccc(N=NS(=O)(=O)[O-])cc1.[Na+] [Positive control 1, fenaminosulf]
Number of revertant mutants per plate (mean ± standard deviation) (S. typhimurium TA98): 1525.00
Number of revertant mutants per plate (mean ± standard deviation) [3]: 1169.4

SMILES: CO/N=C(\C(=O)N[C@@H]1C(=O)N2C(C(=O)O)=C(COC(C)=O)CS[C@H]12)c1csc(N)n1 [Cefotaxime, cefotaxime]
MIC (AKK PROBIO): 16 µg/mL (≈ 35.1 µM)
Test strain AKK PROBIO Judgment result (AKK PROBIO): Sensitive
Test strain AKK PROBIO Judgment result (AKK PROBIO; listed as cefotaxime): sensitive
MIC [2]: 32 µg/mL (≈ 70.3 µM)

SMILES: CC1(C)S[C@@H]2[C@H](NC(=O)[C@H](N)c3ccccc3)C(=O)N2[C@H]1C(=O)O [Ampicillin, ampicillin]
MIC (AKK PROBIO): < 0.25 µg/mL
Test strain AKK PROBIO Judgment result (AKK PROBIO): Sensitive
Test strain AKK PROBIO Judgment result (AKK PROBIO; listed as ampicillin): sensitive
MIC [2]: 64 µg/mL (≈ 183 µM)

SMILES: N[C@H]1C(O)O[C@H](CO)[C@@H](O)[C@@H]1O.O=S(=O)(O)O (stereo partly shown) [Glucosamine sulfate, glucosamine sulfate, reference compound]
SOD in mouse ankle joint tissue ([4]; model group 1.07, normal 6.07): 2.50 ± 0.40 U/mg
MPO in mouse ankle joint tissue ([4]; model group 2.49, normal 0.38): 1.82 ± 0.17 U/g
GSH in mouse ankle joint tissue ([4]; model group 18.06, normal 47.05): 31.14 ± 1.66 mg/g
IL-1β in serum of mice ([4]; model group 24.97, normal 12.66): 21.15 ± 1.22 ng/mL
MDA in mouse ankle joint tissue ([4]; model group 26.69, normal 5.74): 20.31 ± 1.52 nmol/mg
IL-10 in serum of mice ([4]; model group 36.03, normal 27.20): 32.84 ± 1.94 ng/mL
IL-6 in serum of mice ([4]; model group 90.05, normal 52.97): 66.85 ± 4.90 ng/mL
TNF-α in serum of mice ([4]; model group 249.41, normal 117.58): 204.43 ± 15.32 ng/mL
